{"source": "patent US20250170254A1", "about": "“Subdermal Implant for Sustained Drug Delivery” (OAK CREST INSTITUTE OF SCIENCE, priority 2022, published 2025)", "origin": "cited, not measured here", "key": {"HIV-1 [1]": {"system": "HIV-1", "conditions": "MDTG versus DTG"}, "HIV-1 [2]": {"system": "HIV-1"}, "[3]": {"conditions": "in vivo"}, "HIV": {"system": "HIV", "conditions": "four times the protein adjusted IC90 from non-human primate efficacy studies"}, "[4]": {"conditions": "600 mg every 8 weeks, intramuscular long-acting formulation"}, "HIV-1 [5]": {"system": "HIV-1", "conditions": "long-acting injectable formulation"}}, "data": [{"smiles": "CCCCCCCCCCCCCC(=O)Oc1c2n(cc(C(=O)NCc3ccc(F)cc3F)c1=O)C[C@@H]1OCC[C@@H](C)N1C2=O", "note": "[MDTG]", "values": [{"measurement": "IC50 against HIV-1 compared with DTG", "setting": "HIV-1 [1]", "value": "not statistically different"}]}, {"smiles": "C[C@@H]1CCO[C@H]2Cn3cc(C(=O)NCc4ccc(F)cc4F)c(=O)c(O)c3C(=O)N12", "note": "[DTG, dolutegravir]", "values": [{"measurement": "IC50", "setting": "HIV-1 [2]; in vitro against HIV-1, PBMCs, read-out: IC50 in peripheral blood mononuclear cells (PBMCs)", "value": 0.51, "unit": "nM"}, {"measurement": "protein-adjusted IC90 (PA-IC90)", "setting": "HIV-1 [2]; in vitro against HIV-1, protein-adjusted, mass units", "value": 0.064, "unit": "µg/mL"}, {"measurement": "IC90", "setting": "HIV-1 [2]; in vitro against HIV-1, protein-adjusted, read-out: protein-adjusted IC90 (PA-IC90)", "value": 150, "unit": "nM"}, {"measurement": "systemic half-life", "setting": "[3]", "value": "12 to 15", "unit": "h"}]}, {"smiles": "C[C@H]1CO[C@@H]2Cn3cc(C(=O)NCc4ccc(F)cc4F)c(=O)c(O)c3C(=O)N12", "note": "[CAB, cabotegravir]", "values": [{"measurement": "target steady state plasma concentration (four times PA-IC90)", "setting": "HIV", "value": 0.66, "unit": "µg/mL"}, {"measurement": "participants with trough concentrations above 1×PA-IC90", "setting": "[4]", "value": "≥ 95", "unit": "%"}, {"measurement": "participants with trough concentrations above 4×PA-IC90", "setting": "[4]", "value": "≥ 80", "unit": "%"}, {"measurement": "efficacy versus daily oral TDF-FTC in prevention of HIV-1", "setting": "HIV-1 [5]", "value": "superiority"}]}]}
